Measured values from ChEMBL document CHEMBL1201862, “PubChem BioAssay data set” (2004).
The source made the active and inactive calls. Rule as the data show it, for most assays here: actives have a measured EC50 and inactives only a lower limit.

Key:
H9c2 = experiment: cells; assay type: functional, cell-based; details: Rattus norvegicus, H9c2, Myocardium;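 also: confirmatory concentration-response retest of ultra-high-throughput screening hits for modulation of myocardial damage; cell death induced by hydrogen peroxide oxidative stress; compound pretreatment for 60 min then peroxide exposure for 2 h; potency is for protecting the cells against peroxide damage rather than for killing them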
[1] = target: Luciferin 4-monooxygenase (Photinus pyralis, UniProt P08659); experiment: firefly luciferase enzyme inhibitors, dose response, biochemical, luminescence (AID 1891)
[2] = Luminescence Cell-Based Dose Confirmation HTS to Identify Inhibitors of Platelet Dense Granule Release. [Related pubchem assays: 1663 (Primary HTS), 1678 (Summary of Project)]; assay type: functional
H4 = experiment: Luminescence Cell-Based Dose Response HTS to Identify Activators of 5'UTR Stem-Loop Driven Prion Protein mRNA Translation in H4 Neuroglioblastoma Cells. [Related pubchem assays: 1829 (Project Summary), 1814 (Primary HTS)]; assay type: functional; details: Homo sapiens
[3] = Luminescence Cell-Based Dose Confirmation HTS to Identify Activators of 5'UTR Stem-Loop Driven Alpha-Synuclein mRNA Translation in H4 Neuroglioblastoma Cells. [Related pubchem assays: 1829 (Project Summary), 1814 (Primary HTS)]; assay type: functional
[4] = Luminescence Cell-Based Dose Response HTS to Identify Activators of Luciferase Translation or Activity in H4 […] Cells. [Related pubchem assays: 1829 (Project Summary), 1814 (Primary HTS)]; assay type: functional
[5] = target: T1, Calpain-2 catalytic subunit (Sus scrofa, UniProt P43367); experiment: pig calpain II inhibitor potency, dose response, biochemical, fluorogenic peptide substrate (AID 1420); assay type: functional
T1 sequence (P43367 whole entry): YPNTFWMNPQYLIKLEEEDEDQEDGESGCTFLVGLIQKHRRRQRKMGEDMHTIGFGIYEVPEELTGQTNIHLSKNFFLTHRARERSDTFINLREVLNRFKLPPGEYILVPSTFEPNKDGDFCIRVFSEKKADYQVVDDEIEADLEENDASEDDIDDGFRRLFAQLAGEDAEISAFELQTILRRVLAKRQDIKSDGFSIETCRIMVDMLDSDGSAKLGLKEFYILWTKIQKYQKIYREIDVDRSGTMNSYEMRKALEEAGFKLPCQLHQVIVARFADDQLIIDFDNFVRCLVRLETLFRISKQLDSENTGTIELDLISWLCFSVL

[6] = target: T2, Rac GTPase-activating protein 1 (Homo sapiens, UniProt Q9H0H5); experiment: MgcRacGAP GTPase-activating activity inhibitors, confirmation, biochemical, ADP Hunter fluorescence, primary and confirmatory (AID 624330); assay type: functional
T2 sequence (Q9H0H5 whole entry): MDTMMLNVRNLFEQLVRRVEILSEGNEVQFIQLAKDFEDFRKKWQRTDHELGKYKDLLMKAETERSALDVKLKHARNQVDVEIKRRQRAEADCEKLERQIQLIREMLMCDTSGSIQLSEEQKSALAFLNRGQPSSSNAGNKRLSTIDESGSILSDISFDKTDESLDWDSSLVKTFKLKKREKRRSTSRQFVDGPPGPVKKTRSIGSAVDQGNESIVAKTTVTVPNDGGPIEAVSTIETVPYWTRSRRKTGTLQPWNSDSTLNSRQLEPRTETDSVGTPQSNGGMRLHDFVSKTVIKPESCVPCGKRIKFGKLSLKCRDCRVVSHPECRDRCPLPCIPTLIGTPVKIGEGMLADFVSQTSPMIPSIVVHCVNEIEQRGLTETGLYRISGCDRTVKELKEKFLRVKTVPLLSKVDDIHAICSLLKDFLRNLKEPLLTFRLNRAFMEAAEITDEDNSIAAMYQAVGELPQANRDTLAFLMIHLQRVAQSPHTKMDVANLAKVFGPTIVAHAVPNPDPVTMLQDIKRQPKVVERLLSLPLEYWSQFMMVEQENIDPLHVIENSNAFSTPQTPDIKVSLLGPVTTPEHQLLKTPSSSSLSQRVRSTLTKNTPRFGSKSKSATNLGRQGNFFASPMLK

[7] = HEp-2 cell cytotoxicity, dose response, cytotoxicity control for RSV inhibitor project, HTS (AID 2410); assay type: functional; details: human respiratory syncytial virus
[8] = target: T3, Heat shock factor protein 1 (Mus musculus, UniProt P38532); experiment: HSF1 potentiators in luciferase reporter cells, confirmation, cell-based, NIH3T3, luminescence, dose retest (AID 435004); assay type: functional;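 also: stress induced by proteasome inhibitor MG132 added 30 min after compound; luciferase reporter driven by HSF1 response element in NIH3T3 cells; actives raise luminescence as potentiators of the MG132 stress response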
T3 sequence (P38532 whole entry): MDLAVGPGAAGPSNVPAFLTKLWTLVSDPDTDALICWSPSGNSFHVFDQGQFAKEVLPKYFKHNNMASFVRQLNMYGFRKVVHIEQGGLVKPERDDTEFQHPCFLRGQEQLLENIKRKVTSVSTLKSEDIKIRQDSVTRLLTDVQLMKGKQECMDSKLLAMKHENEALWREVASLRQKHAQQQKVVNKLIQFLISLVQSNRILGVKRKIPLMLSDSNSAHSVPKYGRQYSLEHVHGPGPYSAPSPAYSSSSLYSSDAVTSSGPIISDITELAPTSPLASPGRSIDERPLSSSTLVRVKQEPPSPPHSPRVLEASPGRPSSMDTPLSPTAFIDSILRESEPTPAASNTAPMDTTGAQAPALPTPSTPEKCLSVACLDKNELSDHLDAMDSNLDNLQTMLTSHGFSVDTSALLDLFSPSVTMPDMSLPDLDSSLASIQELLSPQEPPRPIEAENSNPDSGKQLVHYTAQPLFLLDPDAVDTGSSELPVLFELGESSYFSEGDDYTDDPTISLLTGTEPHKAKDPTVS

[9] = cytotoxicity toward NIH3T3 fibroblasts, dose response, counter-screen, cell-based, ATP luminescence, mouse fibroblasts (AID 2010); assay type: functional;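 also: cells exposed to compound for about 90 hours before reading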
[10] = inhibitors of intracellular T. cruzi replication, confirmation, NIH3T3 host cells, beta-gal luminescence (AID 2044); assay type: functional, cell-based;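 also: intracellular parasites grown in NIH/3T3 mouse fibroblasts as host cells; luminescent beta-galactosidase reporter signal from transgenic T. cruzi replicating inside host cells; inhibitors lower the luminescence signal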

Sequence of Luciferin 4-monooxygenase (P08659 whole entry): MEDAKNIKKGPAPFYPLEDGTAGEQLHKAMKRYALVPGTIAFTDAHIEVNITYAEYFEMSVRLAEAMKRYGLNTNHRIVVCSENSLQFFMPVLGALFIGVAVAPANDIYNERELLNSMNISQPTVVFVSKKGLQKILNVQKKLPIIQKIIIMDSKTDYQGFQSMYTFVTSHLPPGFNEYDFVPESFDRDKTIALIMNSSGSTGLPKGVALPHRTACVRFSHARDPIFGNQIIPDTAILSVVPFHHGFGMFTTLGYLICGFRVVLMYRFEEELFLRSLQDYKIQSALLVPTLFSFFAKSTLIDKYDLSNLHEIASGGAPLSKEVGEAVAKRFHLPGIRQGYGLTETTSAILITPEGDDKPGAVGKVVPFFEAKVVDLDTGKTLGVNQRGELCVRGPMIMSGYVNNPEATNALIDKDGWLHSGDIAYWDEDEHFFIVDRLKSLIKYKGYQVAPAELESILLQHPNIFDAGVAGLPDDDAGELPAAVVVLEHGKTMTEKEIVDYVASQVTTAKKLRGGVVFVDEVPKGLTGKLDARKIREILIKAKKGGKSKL

SMILES: Cc1cc(NC(=O)COc2nnc(-c3ccccc3)c3ccccc23)no1
- IC50 (H9c2): 32.3 µM (inactive)

SMILES: c1csc(-c2nn3c(Cn4nnc5ccccc54)nnc3s2)c1
- EC50 [1]: > 112 µM (not active)
- EC50 [2]: > 112 µM (not active)

SMILES: CN1CCN(CCCNC(=O)c2cc3c(=O)n(C)c4ccccc4c3s2)CC1
- EC50 (H4): > 120 µM (not active)
- EC50 [3]: > 120 µM (not active)
- EC50 [4]: 11.7 µM (active)

SMILES: COc1cccc(NC(=O)N(C2CCCCC2)C(C)c2cccs2)c1 (centres undefined)
- IC50 [5]: 8.59 µM (not active)

SMILES: CC(=O)Nc1ccc(NC(=O)Cn2nc([N+](=O)[O-])c(Br)c2C)cc1
- IC50 [5]: 11.6 µM (not active)

SMILES: COc1ccc(N2CCN(C(=O)Cn3cnc4c(cnn4-c4ccccc4)c3=O)CC2)cc1
- IC50 [5]: 4.18 µM (not active)

SMILES: CC(Cc1ccccc1)/[N+]([O-])=C\c1ccc(C(F)(F)F)cc1 (centres undefined)
- EC50 (H4): 4.53 µM (active)
- EC50 [3]: 1.2 µM (active)
- EC50 [4]: 6.29 µM (active)

SMILES: Oc1ccc(Br)cc1/C=N/c1ccc2c3c(cccc13)CC2
- IC50 (H9c2): > 79 µM (inactive)
- IC50 [6]: 33.5 µM (active)

SMILES: COc1ccccc1[C@@H]1C(c2cccc(Cl)c2)=NN(c2ccccc2)[C@H]1C(=O)N1CCOC1=O
- CC50 [7]: 33.2 µM (active)

SMILES: CCCCc1c(O)nc(SCC(=O)N2CCOCC2)nc1O
- EC50 [1]: > 112 µM (not active)
- EC50 [2]: > 112 µM (not active)

SMILES: Cc1ccc(NC(=O)c2cc(S(=O)(=O)N3CCOCC3)cn2C)c(C)c1
- EC50 [1]: > 112 µM (not active)
- EC50 [2]: > 112 µM (not active)

SMILES: Cc1ccc(CN(C)C(=O)COC(=O)CSc2ccc(C(N)=O)cc2[N+](=O)[O-])cc1
- IC50 (H9c2): > 79 µM (inactive)

SMILES: CC(C)(C)c1ccc(C(=O)NCc2ccco2)cc1
- EC50 (H4): 13.7 µM (active)
- EC50 [3]: 20.9 µM (active)
- EC50 [4]: 31 µM (active)

SMILES: O=C1CN(c2ccccc2)C(=S)N1C(=O)c1ccccc1
- EC50 (H4): 15.7 µM (inconclusive)
- EC50 [3]: 57.7 µM (active)
- EC50 [4]: 106 µM (active)

SMILES: COc1cccc(OCCNC(=O)c2cccc(OC)c2)c1
- EC50 [1]: > 112 µM (not active)
- EC50 [2]: > 112 µM (not active)

SMILES: N#CCCSc1ccccc1NC(=O)c1cc(=O)c2ccccc2o1
- IC50 (H9c2): 19.3 µM (active)

SMILES: Cc1cccc(-c2cccc(NC(=O)C3CCCN(C(=O)c4cccnc4)C3)c2)c1 (centres undefined)
- EC50 [8]: > 260 µM (inactive)

SMILES: Cn1c2ccc(F)cc2c2nnc(NN)nc21
- IC50 (H9c2): > 79 µM (inactive)

SMILES: CC(C)(C)N(NS(=O)(=O)c1ccc(F)cc1)c1ccccc1
- EC50 [8]: > 260 µM (inactive)

SMILES: CCNc1ccc(S(=O)(=O)N(C)C)cc1NCC(=O)Nc1ccccc1Br
- EC50 [8]: > 260 µM (inactive)

SMILES: Cc1ccc(NC(=O)CNC(=O)c2ccccc2F)cc1Cl
- IC50 [5]: 37.6 µM (not active)

SMILES: COc1ccc(-c2cc3ccc(OCC(C)=O)cc3oc2=O)cc1
- EC50 [8]: > 260 µM (inactive)

SMILES: O=CNc1cc(-c2ccc(C(=O)NC3CC3)cc2)cn2c(-c3ccccc3)cnc12
- IC50 (H9c2): > 79 µM (inactive)

SMILES: CCn1c(SCC(=O)N2CCCC(C)C2)nnc1-c1ccco1 (centres undefined)
- EC50 [1]: > 112 µM (not active)
- EC50 [2]: > 112 µM (not active)

SMILES: CCOc1cc(NC(=O)C2CC2)c(OCC)cc1NC(=O)c1ccccn1
- IC50 (H9c2): 12.6 µM (active)

SMILES: COC(=O)C(Cc1ccc(O)cc1)NC(=O)C12CC3CC(CC(C3)C1)C2 (centres undefined)
- EC50 [1]: > 112 µM (not active)
- EC50 [2]: 17.2 µM (active)

SMILES: O=C1[C@@H]2Cc3c([nH]c4ccccc34)C(c3ccc([N+](=O)[O-])cc3)N2C(=O)CN1C1CC1 (some centres undefined)
- EC50 [8]: > 260 µM (inactive)

SMILES: CC1CCN(C(=S)SCc2nc(N)nc(Nc3ccccc3)n2)CC1
- CC50 [7]: 13.3 µM (active)

SMILES: O=C(CSc1n[nH]c(-c2ccccc2)n1)c1ccccc1
- EC50 (H4): 6.22 µM (active)
- EC50 [3]: 15.3 µM (active)
- EC50 [4]: 5.83 µM (active)

SMILES: Cc1ccc(S(=O)(=O)N2CCC(=O)N(C(COCc3cccc(C)c3)Cc3ccccc3)CC2)cc1 (centres undefined)
- CC50 [7]: 28.7 µM (active)

SMILES: Cc1cccc(NC(=O)CSc2cc(C)c(C#N)c3nc4ccccc4n23)c1
- EC50 [8]: 6.87 µM (active)

SMILES: CN1CCN(c2ccc(NC(=O)COc3ccccc3)cc2Cl)CC1
- EC50 (H4): 66.9 µM (active)
- EC50 [3]: 0.214 µM (active)
- EC50 [4]: 0.229 µM (active)

SMILES: Cc1ccc(Nc2c([N+](=O)[O-])nn(-c3ccc4c(c3)OCCO4)[n+]2[O-])c(Cl)c1
- IC50 [5]: 23.1 µM (not active)
- EC50 [9]: > 60 µM (not active)
- EC50 [10]: 0.199 µM (active)

SMILES: CCc1nc2c(sc3nc4c(cc32)COC(C)(C)C4)c(=O)n1Cc1ccco1
- EC50 [8]: > 260 µM (inactive)

SMILES: Cc1ccc(-n2nc3c(=O)n(CCCC(=O)NCc4ccccc4C)nc(C)c3c2C)cc1
- CC50 [7]: > 50 µM (active)

SMILES: CCn1nc(C(=O)OCC(=O)c2c[nH]c3ccccc23)c2ccccc2c1=O
- IC50 [5]: 3.99 µM (not active)
- IC50 (H9c2): > 79 µM (inactive)

SMILES: COc1ccc(CCNC(=O)C2CCCN(Cc3nc(-c4ccccc4C)oc3C)C2)cc1OC (centres undefined)
- EC50 [8]: > 260 µM (inactive)

SMILES: CCOc1cc(/C=C2/SC(=S)N(CC3CCCO3)C2=O)ccc1O (centres undefined)
- EC50 [8]: > 260 µM (inactive)

SMILES: CC(C)(C)n1nc2c(c1NC(=O)c1cc([N+](=O)[O-])ccc1Cl)CS(=O)(=O)C2
- EC50 (H4): > 120 µM (not active)
- EC50 [3]: 17.8 µM (active)
- EC50 [4]: 18.9 µM (active)

SMILES: C[C@H](NC(=O)c1[nH]cnc1C(=O)N[C@@H](Cc1ccccc1)C(=O)OCc1ccccc1)C(=O)OC(C)(C)C
- CC50 [7]: 24.8 µM (active)

SMILES: N#Cc1cnc2sc3ccccc3n2c1=N
- EC50 (H4): 11.7 µM (active)
- EC50 [3]: 15.9 µM (active)
- EC50 [4]: 10.6 µM (active)

SMILES: N=C(NOC(=O)c1cc(Cl)ccc1Cl)c1ccncc1
- EC50 (H4): 28.1 µM (active)
- EC50 [3]: 9.04 µM (active)
- EC50 [4]: 1.87 µM (active)

SMILES: COc1ccc(OCC(=O)NCc2nnc(O)c3ccccc23)cc1
- IC50 (H9c2): > 79 µM (inactive)

SMILES: O=C(NNC(=O)c1cc(OCC(F)(F)F)ccc1OCC(F)(F)F)c1ccc(Cl)c(Cl)c1
- IC50 [5]: 6.1 µM (not active)

SMILES: CCN(C(=O)COC(=O)c1cc(-c2cccs2)nc2ccccc12)C1CCS(=O)(=O)C1 (centres undefined)
- EC50 [1]: > 112 µM (not active)
- EC50 [2]: > 112 µM (not active)

SMILES: CCOc1ccc(C(C(=O)NC2CCCC2)N(C(=O)c2snc(C(N)=O)c2N)c2cccc(O)c2)cc1 (centres undefined)
- IC50 (H9c2): > 79 µM (inactive)

SMILES: CCOc1ccc(N(CC(=O)Nc2cccc(OC)c2)S(=O)(=O)c2c(C)noc2C)cc1
- IC50 [5]: 5.86 µM (not active)

SMILES: O=C(CCc1nc(O)c2ccccc2n1)Nc1ccc(Cl)c(Cl)c1
- IC50 (H9c2): 15.4 µM (active)

SMILES: O=c1c(Cl)cc(Cl)nn1-c1ccccc1
- EC50 [8]: 24.7 µM (active)

SMILES: O=c1c2c(-c3cccs3)csc2ncn1-n1cccc1
- IC50 [5]: > 50 µM (not active)
